Experiments:
Caco2 or HT29 cells = experiment: In vitro FITC-dextran permeability assay; format: cell-based, human; details: pretreatment 50 μM 24 h; LPS 50 ng/ml 2 h
Method: In vitro permeability study: For in vitro cellular permeability studies, Caco2 cells or HT29 cells (2×10^4 cells/cm^2) were seeded in 24-well Transwell® plates (Cornings; USA), on polyester membrane filters (pore size 0.4 μm, surface area 1.12 cm^2) (KOWAPRADIT et al. (2010) “In vitro permeability enhancement in intestinal epithelial cells (Caco-2) monolayer of water soluble quaternary ammonium chitosan derivatives” Aaps Pharmscitech, Vol. 11, pp. 497-508). Culture medium was added to both apical and basal chamber and the medium was changed every other day up to 21 days for Caco2 cells or 5-7 days for HT29 cells. For Caco2 cells, transepethelial electrical resistance (TEER) was calculated using EMD Millipore Millicell-ERS2 Volt-Ohm Meter (Millipore). Filters (with cell monolayer) showing more than 600 Ω·cm^2 were used for permeability study. After cells reach desired confluence (monolayered cells), cells were pre-treated with vehicle (0.01% DMSO) UroA (50 μM) and UAS03 […] for 24 hours. After treatment, monolayer was washed with PBS to remove any residual drug and 200 μL of LPS (50 ng/ml in HBSS) was added to each well and incubated for 2 hours. […] After 2 h, a sample from the basal chamber was withdrawn and FD4 concentration was determined using fluorescence 96-wells plate reader at excitation and emission wavelengths were 480 and 525 nm, respectively.

Cyp1A1 = Cyp1A1 expression and enzyme activity in vitro (P450-Glo, EROD); format: cell-based, human; details: for Cyp1A1 enzyme activity in colon epithelial cells: HT29, 24 h, P450-Glo and EROD
Method: Measurment of Cyp1A1 enzyme activities in vitro. EROD assay: HT-29 cells (15,000 cells/well) treated with vehicle, UroA and UAS03 (24 hrs), were rinsed with HBSS buffer, and then fresh HBSS buffer was added along with 5 μM of 7-ethoxyresorufin. Cells were further incubated at 37° C. for 1 h. After the incubation time, fluorescence (Exc. 530 nm, Em. 580 nm) was measured and product (resorufin) formed was calculated from calibration standard and normalized with protein concentration.
P450-Glo Cyp1A1 luminiscence assay: HT29 cells (25,000 cells/well) were plated in 48 well plate. Cell were then treated with UroA (0.1, 1, 10, 25 and 50 μM) or UAS03 (0.1, 1, 10, 25 and 50 μM) or FICZ (0.1, 1, 10, 25 and 50 nM) for 24 hrs. After treatment, cells were washed to remove any residual drugs, and fresh medium containing Cyp1A1 substrate (as per protocol provided with kit Cat. #V8751; Promega) for 3 hr. After incubation, 25 μl of culture medium was removed from each well and transferred to a 96-well white opaque plate and 25 μl of luciferin detection reagent was added to initiate the luminescence reaction and plate was incubated at room temperature for 20 min. After incubation, luminescence was recorded in luminometer. The data reported as fold change over vehicle treatment.

Caco-2 monolayer cells = experiment: Caco2 monolayer TEER and FITC-dextran permeability (EtOH, LPS, HMGB1); format: cell-based, human; details: for TEER / Ocln expression: EtOH 350 mM (2%); for TEER: 10, 25, 50 μM pre-treatment 24 h; for Ocln expression: 10, 25, 50 μM, 24 h
Method: FIG. 13: Caco2 cells were grown as monolayer on transwell membrane filters. (A) Cells were treated with 40 mM EtOH and FITC-dextran permeability was performed in time dependent manner. (B-F) Cells were treated with respective Urolithins (50 μM) and Ellagic acid (50 μM) or different doses of UroA (B) for 24 hrs. After treatments, cells were treated with ethanol (40 mM) (B, D) or 400 mM (E, F), LPS (100 ng/mL), HMGB1 (500 ng/mL) for 2 hrs and washed with PBS. FITC-Dex (1 mg/mL) solution was added (100 μl) on apical side. Permeability of FITC-Dex across the monolayer as well as TEER values were measured after 2 hr. […] Confocal images of TJ proteins staining. Statistics performed using unpaired t-test. *p<0.05, **p<0.01, *** p<0.001, Error bars, ±SEM.
Caco2 cells on transwell membrane were pre-treated with vehicle or UroA or UAS03 (10, 25, 50 μM) for 24 h followed by addition of alcohol (2%) for 24 h. TEER values (A) and the FITC-dextran permeability assay (B) was performed as described in FIG. 2. Statistics performed using unpaired t-test using Graphpad Prism software. Error bars, ±SEM; ***p<0.001; **p<0.01. (C) Caco2 cells were treated with alcohol (EtOH) (350 mM or 2%) in the presence or with UroA or UAS03 (10, 25, 50 μM) for 24 h and determined expression of Ocln by Western blots. Representative of 3 independent blots was shown.
UroA upregulate TJ proteins and protect against EtOH induced damage. […] For this purpose, we utilized Caco-2 monolayer cells on transwell membranes and performed transepithelial electrical resistance (TEER) and FITC-dextran permeability assays. […] Gut barrier dysfunction leads to elevated intestinal permeability thus increasing circulating levels of endotoxins. Endotoxins such as LPS (representative for PAMP) and HMGB1 (representative for DAMP) induce several inflammatory cytokines, chemokines and ROS leading to further enhancement of systemic inflammation to promote pathogenesis of ALD.
We tested whether UAS03 could protect against higher dose of EtOH (350 mM) induced barrier dysfunction in Caco2 monolayer cells.

C57B6/J mice = experiment: LPS-induced sepsis survival; format: in vivo, mouse; details: LPS 20 mg/kg i.p.; for survival of septic mice: compound 20 mg/kg i.p.
Method: UAS03 (Ether) attenuates septic mortality. C57B6/J mice were injected with lipopolysaccharide intra-peritoneally at a septic dose of 20 mg/kg. The treated animals received either Urolithin-A or UAS03 (Ether) at 20 mg/kg intraperitoneal injection.
Preventive and therapeutic effect of UAS03 (Ether) in septic animals. Animals were injected with LPS intraperitoneally at 20 mg/kg dose to induce sepsis. For Ether+LPS group animals were given UAS03 (20 mg/kg; intraperitoneal) 1 hour prior LPS injection. LPS+Ether group received UAS03 1 hour post LPS injection.

[1] = test system: Human Umbilical Vein Endothelial Cells (HUVECs); experiment: HUVEC CDH5 expression and in vitro permeability; format: cell-based
C57BL/6 mice = experiment: TNBS-induced colitis; format: in vivo, mouse; details: for colitis phenotype, therapeutic regimen: 20 mg/kg from 24 h post-TNBS; for TNBS-induced colon shortening and colonic inflammation, pre-treatment / barrier function, pre-treatment: oral 20 mg/kg daily one week before TNBS, none after

SMILES | LPS induced leakage of FITC-dextran into bottom chambers (Caco2 or HT29 cells) | Cyp1A1 enzyme activity in colon epithelial cells (Cyp1A1) | TEER (Caco-2 monolayer cells) | Ocln expression (Caco-2 monolayer cells) | survival, pretreated (1 hour prior LPS) (C57B6/J mice; 20 mg/kg i.p.) [%] | survival, therapeutic group (1 hour post LPS) (C57B6/J mice; 20 mg/kg i.p.) [%] | survival of septic mice (C57B6/J mice) [%] | expression of CDH5 (VE-Cadherin) [1] | colitis phenotype, therapeutic regimen (C57BL/6 mice) | TNBS-induced colon shortening and colonic inflammation, pre-treatment (C57BL/6 mice) | barrier function, pre-treatment (C57BL/6 mice) | Cyp1A1 expression (RNA-Seq and real time PCR) (Cyp1A1; HT29, 50 μM, 24 h) | TEER values (Caco-2 monolayer cells; EtOH 400 mM) | EtOH induced damage of tight junction proteins (ZO-1, Ocln) (Caco-2 monolayer cells; Western blots, confocal images)
Oc1ccc2c(c1)COc1cc(O)ccc1-2 [UAS03, 6H-benzo[c]chromene-3,8-diol] | inhibited LPS induced leakage | induced Cyp1A1 activity | increased TEER | increased TJ protein | 70 | 100 | 90 | increased the expression of CDH5 | reversed the colitis phenotype | protected | enhanced barrier function |  |  | 
O=c1oc2cc(O)ccc2c2ccc(O)cc12 [UroA, 3,8-dihydroxy-6H-dibenzo[b,d]pyran-6-one] | inhibited LPS induced leakage | induced Cyp1A1 activity | increased TEER | increased TJ protein |  |  | 20 | increased the expression of CDH5 | reversed the colitis phenotype | protected | enhanced barrier function | upregulated | enhanced TEER values | protects against EtOH induced damage of tight junction proteins

— US12377069B2, “Compounds, compositions, methods of using, and methods for preparing compounds” (UNIVERSITY OF LOUISVILLE RESEARCH FOUNDATION, INC., priority 2018, dated 2025)
